From PubChem BioAssay (NCI)
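Briefly, cells in 96-well plates were exposed to five compound concentrations for 48 h, and endpoints were estimated by linear interpolation. TGI: total growth inhibition.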

Key:
Experiment in all cases: NCI tumour cell line growth inhibition, 48 h
OVCAR-5 ovarian = tested on: OVCAR-5 ovarian
HCT-15 colon = tested on: HCT-15 colon
SK-MEL-28 melanoma = tested on: SK-MEL-28 melanoma
DMS 114 small cell lung = tested on: DMS 114 small cell lung
IGROV1 ovarian = tested on: IGROV1 ovarian
U251 CNS = tested on: U251 CNS
TK-10 renal = tested on: TK-10 renal
HOP-18 NSCLC = tested on: HOP-18 NSCLC
NCI-H23 lung = tested on: NCI-H23 lung
DLD-1 colon = tested on: DLD-1 colon
K-562 leukemia = tested on: K-562 leukemia
SW-620 colon = tested on: SW-620 colon
UACC-62 melanoma = tested on: UACC-62 melanoma
SF-539 CNS = tested on: SF-539 CNS
DMS 273 small cell lung = tested on: DMS 273 small cell lung
SN12C renal = tested on: SN12C renal
RXF 393 renal = tested on: RXF 393 renal
MOLT-4 leukemia = tested on: MOLT-4 leukemia
M19-MEL melanoma = tested on: M19-MEL melanoma
KM12 colon = tested on: KM12 colon
RPMI-8226 leukemia = tested on: RPMI-8226 leukemia
EKVX NSCLC = tested on: EKVX NSCLC
NCI-H460 lung = tested on: NCI-H460 lung
UO-31 renal = tested on: UO-31 renal
SR leukemia = tested on: SR leukemia
NCI-H522 lung = tested on: NCI-H522 lung
SK-MEL-5 melanoma = tested on: SK-MEL-5 melanoma
COLO 205 colon = tested on: COLO 205 colon
LXFL 529 NSCLC = tested on: LXFL 529 NSCLC
MALME-3M melanoma = tested on: MALME-3M melanoma
SK-OV-3 ovarian = tested on: SK-OV-3 ovarian
SNB-75 CNS = tested on: SNB-75 CNS
SNB-19 CNS = tested on: SNB-19 CNS
SK-MEL-2 melanoma = tested on: SK-MEL-2 melanoma
A549 NSCLC = tested on: A549 NSCLC
HCT-116 colon = tested on: HCT-116 colon
OVCAR-4 ovarian = tested on: OVCAR-4 ovarian
XF 498 CNS = tested on: XF 498 CNS
CAKI-1 renal = tested on: CAKI-1 renal
HCC-2998 colon = tested on: HCC-2998 colon
786-0 renal = tested on: 786-0 renal
ACHN renal = tested on: ACHN renal
SNB-78 CNS = tested on: SNB-78 CNS
SF-268 CNS = tested on: SF-268 CNS
SF-295 CNS = tested on: SF-295 CNS
KM20L2 colon = tested on: KM20L2 colon
OVCAR-8 ovarian = tested on: OVCAR-8 ovarian
CCRF-CEM leukemia = tested on: CCRF-CEM leukemia
HT29 colon = tested on: HT29 colon
A498 renal = tested on: A498 renal
HOP-62 NSCLC = tested on: HOP-62 NSCLC
UACC-257 melanoma = tested on: UACC-257 melanoma
M14 melanoma = tested on: M14 melanoma
OVCAR-3 ovarian = tested on: OVCAR-3 ovarian
HOP-92 NSCLC = tested on: HOP-92 NSCLC
NCI-H226 lung = tested on: NCI-H226 lung
HL-60(TB) leukemia = tested on: HL-60(TB) leukemia
LOX IMVI melanoma = tested on: LOX IMVI melanoma

## CCOC(=O)c1cc(OC(=O)CC)c2c(OC)ccc(OC)c2c1
OVCAR-5 ovarian
  TGI: > 100 µM
HCT-15 colon
  TGI: 96.6 µM
SK-MEL-28 melanoma
  TGI: > 100 µM
DMS 114 small cell lung
  TGI: > 100 µM
IGROV1 ovarian
  TGI: > 100 µM
U251 CNS
  TGI: > 100 µM
TK-10 renal
  TGI: > 100 µM
HOP-18 NSCLC
  TGI: > 100 µM
NCI-H23 lung
  TGI: > 100 µM
DLD-1 colon
  TGI: > 100 µM
K-562 leukemia
  TGI: > 100 µM
SW-620 colon
  TGI: > 100 µM
UACC-62 melanoma
  TGI: > 100 µM
SF-539 CNS
  TGI: > 100 µM
DMS 273 small cell lung
  TGI: > 100 µM
SN12C renal
  TGI: > 100 µM
RXF 393 renal
  TGI: 69.7 µM
MOLT-4 leukemia
  TGI: > 100 µM
M19-MEL melanoma
  TGI: > 100 µM
KM12 colon
  TGI: > 100 µM
RPMI-8226 leukemia
  TGI: > 100 µM
EKVX NSCLC
  TGI: > 100 µM
NCI-H460 lung
  TGI: > 100 µM
UO-31 renal
  TGI: > 100 µM
SR leukemia
  TGI: > 100 µM
NCI-H522 lung
  TGI: > 100 µM
SK-MEL-5 melanoma
  TGI: > 100 µM
COLO 205 colon
  TGI: > 100 µM
LXFL 529 NSCLC
  TGI: > 100 µM
MALME-3M melanoma
  TGI: > 100 µM
SK-OV-3 ovarian
  TGI: 91.6 µM
SNB-75 CNS
  TGI: 99 µM
SNB-19 CNS
  TGI: > 100 µM
SK-MEL-2 melanoma
  TGI: > 100 µM
A549 NSCLC
  TGI: > 100 µM
HCT-116 colon
  TGI: > 100 µM
OVCAR-4 ovarian
  TGI: > 100 µM
XF 498 CNS
  TGI: > 100 µM
CAKI-1 renal
  TGI: > 100 µM
HCC-2998 colon
  TGI: > 100 µM
786-0 renal
  TGI: > 100 µM
ACHN renal
  TGI: > 100 µM

## COc1ccc2c(c1)OC(c1ccccc1O)CC2=O (centres undefined)
OVCAR-5 ovarian
  TGI: > 100 µM
HCT-15 colon
  TGI: > 100 µM
SNB-78 CNS
  TGI: 84.8 µM
SK-MEL-28 melanoma
  TGI: > 100 µM
U251 CNS
  TGI: > 100 µM
TK-10 renal
  TGI: > 100 µM
HOP-18 NSCLC
  TGI: > 100 µM
SF-268 CNS
  TGI: > 100 µM
NCI-H23 lung
  TGI: > 100 µM
DLD-1 colon
  TGI: > 100 µM
SF-295 CNS
  TGI: > 100 µM
KM20L2 colon
  TGI: > 100 µM
K-562 leukemia
  TGI: > 100 µM
SW-620 colon
  TGI: > 100 µM
SF-539 CNS
  TGI: > 100 µM
SN12C renal
  TGI: > 100 µM
MOLT-4 leukemia
  TGI: > 100 µM
KM12 colon
  TGI: > 100 µM
RPMI-8226 leukemia
  TGI: > 100 µM
EKVX NSCLC
  TGI: > 100 µM
NCI-H460 lung
  TGI: > 100 µM
OVCAR-8 ovarian
  TGI: > 100 µM
CCRF-CEM leukemia
  TGI: > 100 µM
UO-31 renal
  TGI: 96.8 µM
NCI-H522 lung
  TGI: 92.8 µM
SK-MEL-5 melanoma
  TGI: > 100 µM
HT29 colon
  TGI: > 100 µM
LXFL 529 NSCLC
  TGI: 71.5 µM
MALME-3M melanoma
  TGI: > 100 µM
A498 renal
  TGI: > 100 µM
SNB-75 CNS
  TGI: > 100 µM
SNB-19 CNS
  TGI: > 100 µM
HOP-62 NSCLC
  TGI: > 100 µM
SK-MEL-2 melanoma
  TGI: 77.5 µM
A549 NSCLC
  TGI: > 100 µM
UACC-257 melanoma
  TGI: > 100 µM
HCT-116 colon
  TGI: > 100 µM
M14 melanoma
  TGI: > 100 µM
OVCAR-4 ovarian
  TGI: > 100 µM
XF 498 CNS
  TGI: > 100 µM
CAKI-1 renal
  TGI: > 100 µM
HCC-2998 colon
  TGI: > 100 µM
OVCAR-3 ovarian
  TGI: 96.8 µM
786-0 renal
  TGI: > 100 µM
ACHN renal
  TGI: > 100 µM

## CC(C)c1cccc(C(C)C)c1NC(=O)CCC(=O)NN
OVCAR-5 ovarian
  TGI: > 100 µM
HCT-15 colon
  TGI: 37.7 µM
HOP-92 NSCLC
  TGI: > 100 µM
SNB-78 CNS
  TGI: > 100 µM
SK-MEL-28 melanoma
  TGI: > 100 µM
DMS 114 small cell lung
  TGI: > 100 µM
IGROV1 ovarian
  TGI: > 100 µM
U251 CNS
  TGI: > 100 µM
TK-10 renal
  TGI: > 100 µM
HOP-18 NSCLC
  TGI: > 100 µM
SF-268 CNS
  TGI: > 100 µM
NCI-H23 lung
  TGI: > 100 µM
DLD-1 colon
  TGI: > 100 µM
SF-295 CNS
  TGI: > 100 µM
KM20L2 colon
  TGI: > 100 µM
K-562 leukemia
  TGI: > 100 µM
SW-620 colon
  TGI: 42.9 µM
UACC-62 melanoma
  TGI: > 100 µM
SF-539 CNS
  TGI: > 100 µM
DMS 273 small cell lung
  TGI: > 100 µM
SN12C renal
  TGI: > 100 µM
MOLT-4 leukemia
  TGI: > 100 µM
M19-MEL melanoma
  TGI: > 100 µM
KM12 colon
  TGI: > 100 µM
RPMI-8226 leukemia
  TGI: > 100 µM
EKVX NSCLC
  TGI: > 100 µM
NCI-H460 lung
  TGI: > 100 µM
OVCAR-8 ovarian
  TGI: > 100 µM
CCRF-CEM leukemia
  TGI: > 100 µM
UO-31 renal
  TGI: > 100 µM
NCI-H226 lung
  TGI: > 100 µM
HL-60(TB) leukemia
  TGI: > 100 µM
SK-MEL-5 melanoma
  TGI: > 100 µM
HT29 colon
  TGI: > 100 µM
COLO 205 colon
  TGI: 36.1 µM
LXFL 529 NSCLC
  TGI: > 100 µM
MALME-3M melanoma
  TGI: > 100 µM
A498 renal
  TGI: > 100 µM
SK-OV-3 ovarian
  TGI: > 100 µM
SNB-75 CNS
  TGI: > 100 µM
SNB-19 CNS
  TGI: > 100 µM
HOP-62 NSCLC
  TGI: > 100 µM
A549 NSCLC
  TGI: > 100 µM
UACC-257 melanoma
  TGI: > 100 µM
HCT-116 colon
  TGI: > 100 µM
M14 melanoma
  TGI: > 100 µM
OVCAR-4 ovarian
  TGI: > 100 µM
CAKI-1 renal
  TGI: > 100 µM
HCC-2998 colon
  TGI: > 100 µM
OVCAR-3 ovarian
  TGI: > 100 µM
786-0 renal
  TGI: > 100 µM
ACHN renal
  TGI: > 100 µM

## COc1cc(Nc2nc3cc(C(F)(F)F)ccc3nc2C)cc(OC)c1OC
OVCAR-5 ovarian
  TGI: 26.7 µM
HCT-15 colon
  TGI: 12.2 µM
HOP-92 NSCLC
  TGI: 0.95 µM
SNB-78 CNS
  TGI: 25.9 µM
SK-MEL-28 melanoma
  TGI: 25.3 µM
DMS 114 small cell lung
  TGI: 23.8 µM
IGROV1 ovarian
  TGI: 32 µM
U251 CNS
  TGI: 22.4 µM
TK-10 renal
  TGI: 23.3 µM
LOX IMVI melanoma
  TGI: 10.9 µM
SF-268 CNS
  TGI: 33.5 µM
NCI-H23 lung
  TGI: 23.2 µM
SF-295 CNS
  TGI: 4.91 µM
K-562 leukemia
  TGI: 20.1 µM
SW-620 colon
  TGI: 26.6 µM
UACC-62 melanoma
  TGI: 13.3 µM
SF-539 CNS
  TGI: 25.4 µM
DMS 273 small cell lung
  TGI: 30 µM
SN12C renal
  TGI: 23 µM
RXF 393 renal
  TGI: 17.9 µM
MOLT-4 leukemia
  TGI: 31 µM
KM12 colon
  TGI: 21.5 µM
EKVX NSCLC
  TGI: 30.6 µM
NCI-H460 lung
  TGI: 17.7 µM
OVCAR-8 ovarian
  TGI: 24.5 µM
CCRF-CEM leukemia
  TGI: 24.3 µM
UO-31 renal
  TGI: 12.6 µM
SR leukemia
  TGI: 30.3 µM
NCI-H226 lung
  TGI: 22.8 µM
NCI-H522 lung
  TGI: 25 µM
SK-MEL-5 melanoma
  TGI: 25.2 µM
HT29 colon
  TGI: 13 µM
COLO 205 colon
  TGI: 25.3 µM
LXFL 529 NSCLC
  TGI: 21.7 µM
MALME-3M melanoma
  TGI: 26.6 µM
A498 renal
  TGI: 18.8 µM
SK-OV-3 ovarian
  TGI: 30.5 µM
SNB-75 CNS
  TGI: 39 µM
HOP-62 NSCLC
  TGI: 30.6 µM
SK-MEL-2 melanoma
  TGI: 23.6 µM
UACC-257 melanoma
  TGI: 21.4 µM
HCT-116 colon
  TGI: 21.1 µM
M14 melanoma
  TGI: 21.3 µM
OVCAR-4 ovarian
  TGI: 34 µM
XF 498 CNS
  TGI: 8.77 µM
CAKI-1 renal
  TGI: 20.8 µM
HCC-2998 colon
  TGI: 12.6 µM
OVCAR-3 ovarian
  TGI: 30.9 µM
786-0 renal
  TGI: 24.8 µM
ACHN renal
  TGI: 20.8 µM
